PMC5813187, “Enhanced Permeability and Binding Activity of Isobutylene‐Grafted Peptides” (Chembiochem, 2017)
Where a SMILES comes first, the peptide text is derived from it.

What was measured:
[1] = PAMPA, pH 7.4
[2] = Stability test in human plasma; format: in vitro ADME; details: 100 μL of around 1 mM peptide in H2O with 1 μL reconstituted human plasma (Sigma-Aldrich), 37 °C, 48 h, HPLC
Method: (§1) GSH solution (to 1 mM) or 1 μL of reconstituted human plasma (Sigma -Aldrich), and the resulting
mixture vortexed for 30 s and then shaken at 37 °C. […]
DAD1 E, Sig=280,4 Ref =360,100 (SHUANG\ISOBUT YLENE STAPLED SOMATOST AT IN_PLASMA.D)

[3] = Stability test in presence of GSH; format: physicochemical; details: around 1 mM peptide in H2O, 1 mM GSH, 37 °C, 48 h, HPLC
Method: as §1
mixture vortexed for 30 s and then shaken at 37 °C. After 48 h, an aliquot of each reaction mixture was […]

| SMILES | Permeability [1] [×10⁻⁶ cm/s] | −log P e [1] | stability in human plasma [2] | stability in human plasma ([2]; listed as Stapled Somatostatin) | stability in the presence of glutathione [3] | stability in the presence of glutathione ([3]; listed as Stapled Somatostatin) |
| --- | --- | --- | --- | --- | --- | --- |
| CC(=O)N[C@@H](CS)C(=O)N1CCC[C@H]1C(=O)N[C@@H](CC(=O)O)C(=O)N[C@@H](Cc1ccccc1)C(=O)N[C@@H](CC(C)C)C(=O)N[C@@H](C)C(=O)N[C@@H](CS)C(N)=O [III] (Ac-CPDFLAC-NH2) | <0.001 |  |  |  |  |  |
| CC(=O)N[C@@H](CS)C(=O)N1CCC[C@H]1C(=O)N[C@@H](CC(C)C)C(=O)N[C@@H](CC(=O)O)C(=O)N[C@@H](Cc1ccccc1)C(=O)N[C@@H](C)C(=O)N[C@@H](CS)C(N)=O [II] (Ac-CPLDFAC-NH2) | 0.76 | 5.12 |  |  |  |  |
| C=C1CSC[C@@H](C(=O)O)NC(=O)[C@H](CO)NC(=O)[C@H]([C@@H](C)O)NC(=O)[C@H](Cc2ccccc2)NC(=O)[C@H]([C@@H](C)O)NC(=O)[C@H](CCCCN)NC(=O)[C@H](Cc2c[nH]c3ccccc23)NC(=O)[C@H](Cc2ccccc2)NC(=O)[C@H](Cc2ccccc2)NC(=O)[C@H](CC(N)=O)NC(=O)[C@H](CCCCN)NC(=O)[C@@H](NC(=O)CNC(=O)[C@H](C)N)CSC1 [stapled somatostatin] |  |  | fully stable | No significant degradation | fully stable | No significant degradation |
